{
  "source": "patent US20260216247A1",
  "about": "“Composition For Treatment Or Prevention Of Hair Loss Comprising Stem Cell-Derived Exosomes And Preparation Method Therefor” (BREXOGEN INC., priority 2023, published 2026)",
  "key": {"[1]": {"tested_on": "testosterone-treated C57BL/6 mice", "assay": "Hair regrowth in testosterone-treated animal model", "assay_type": "in vivo", "settings": "Day 27; topical testosterone daily; 1 mg/kg Finasteride subcutaneous every other day; testosterone-untreated = 100", "procedure": "To evaluate whether the composition of the present disclosure promotes hair regrowth, BxC-HAe isolated in Example 2 was administered to a testosterone-treated animal model, and changes in body weight and photographic observations were compared.\nSpecifically, six-week-old C57BL/6 mice were acclimated for two weeks under conditions of 25° C. and 50% humidity with ad libitum access to food and tap water. Eight-week-old mice were then used for the experiment.\nOn Day 0, initial depilation was performed using a hair clipper, followed by the application of Niklin (II-dong Pharmaceutical) for 90 seconds for secondary depilation. The area was then rinsed three times with lukewarm water.\nIn the testosterone-treated group, starting on Day 1, 100 μL of 0.5% (w/w) testosterone dissolved in 50% ethanol was topically applied daily to the depilated dorsal region of each mouse.\nStarting from the point when hair regrowth began in the testosterone-untreated group, body weight was measured twice weekly, and photographs were taken once weekly.\nSpecifically, hair regrowth area and depilated area were measured using ImageJ software, and the ratio of hair regrowth area to depilated area was calculated and analyzed statistically.\nThe experiment was conducted until Day 27, the point at which hair regrowth was completed in the testosterone-untreated group. […]"}, "β-catenin": {"tested_on": "β-catenin", "assay": "β-catenin immunofluorescence in skin tissue, testosterone-treated animal model", "assay_type": "in vivo, C57BL/6 mice", "settings": "dorsal skin after 27-day experiment; 1 mg/kg Finasteride; testosterone-untreated = 1", "procedure": "To determine whether the composition of the present disclosure modulates the expression of hair loss and regrowth-related factors, a testosterone-treated animal model was administered BxC-HAe isolated in Example 2, and the fluorescence intensity of cells stained with antibodies against androgen receptor (AR) and β-catenin was measured and compared.\nSpecifically, dorsal skin tissues from each mouse subjected to the 27-day experiment (described in Example 8) were harvested, embedded in paraffin blocks, and sectioned at a thickness of 5 μm, followed by immunofluorescent staining.\nThe primary antibodies used were rabbit anti-β-catenin (Cell Signaling #9562) and mouse anti-AR (Santa Cruz, sc-7305). The fluorophore-conjugated secondary antibodies were goat anti-rabbit IgG conjugated with Alexa Fluor 488 (Abcam, ab150077) and goat anti-mouse IgG conjugated with Cyanine5 (Invitrogen, a10524).\nAfter completion of the antibody reactions, DAPI staining was performed, and fluorescence patterns were analyzed using a Nikon ECLIPSE Ti2 fluorescence microscope and NIS-Elements software. The results are shown in FIGS. 22-24, and in Tables 19 and 20."}, "[2]": {"tested_on": "testosterone-treated C57BL/6 mice", "assay": "Ratio of anagen-phase hair follicles in skin tissue (H&E), testosterone-treated animal model", "assay_type": "in vivo", "settings": "Anagen/(Catagen+Telogen); dorsal skin after 27-day experiment; 1 mg/kg Finasteride subcutaneous", "procedure": "To determine whether the composition of the present disclosure inhibits the reduction of hair follicles, the ratio of anagen-phase hair follicles was measured in a testosterone-treated animal model following administration of BxC-HAe isolated in Example 2. Specifically, dorsal skin tissues from each mouse subjected to the 27-day experiment described in Example 8 were collected, embedded in paraffin blocks, and sectioned at a thickness of 5 μm. The tissue sections were then stained using H&E. Subsequently, for each group, randomly selected hair follicles from the dorsal skin of five mice were classified by morphology into anagen (growth phase), catagen (regression phase), and telogen (resting phase). The ratio of anagen hair follicles was calculated using the formula: Anagen/(Catagen+Telogen). The results were presented in FIGS. 20 and 21, and Table 18."}},
  "data": [
    {"smiles": "CC(C)(C)NC(=O)[C@H]1CC[C@H]2[C@@H]3CC[C@H]4NC(=O)C=C[C@]4(C)[C@H]3CC[C@]12C", "note": "[Finasteride]", "values": [
      {"measurement": "Hair growth area (%)", "setting": "[1]", "value": 68.1, "unit": "%"},
      {"measurement": "Fluorescence intensity (β-catenin)", "setting": "β-catenin", "value": 1.05},
      {"measurement": "Percentage of hair follicles in growth phase (%)", "setting": "[2]", "value": 1.29, "unit": "%"}
    ]}
  ]
}
